Where two headings read alike, the source gives them in different places.
Columns and labels:
[1] = tested on: reniform nematode [Rotylenchulus reniformis]; assay: Greenhouse nematicide test in cotton field soil, covered and uncovered pots (Experiment 6, FIGS. 1-4); type: in vivo; conditions: for Control of the nematode in soil: covered and uncovered, all rates up to 12 mg per kg of soil
Source text: FIGS. 2 and 3 illustrate the effectiveness of the diiodoethane and diiodopropane in eliminating the nematode (Rotylenchulus reniformis) from a soil sample. The “x” axis on the top row illustrates the quantity of iodinated hydrocarbon in milligrams per kilogram of soil. The next two rows below the “x” axis indicate the number of nematodes per 100 milliliters of soil, which is also indicated on the “y” axis. In FIG. 2, 1,2-diiodoethane was applied to the soil both in a covered state and an uncovered state. […] This is believed to be so because of the volatility of 1,2 diiodoethane, wherein the cover slows down the rate at which the compound evaporates into the atmosphere.
In this experiment, the pesticidal and herbicidal properties of volatile, low molecular weight, iodinated hydrocarbons were investigated. The relative nematicidal efficacy of iodomethane [C1], 1,2-diiodoethane [C2], 1,3-diiodopropane [C3] and 1,4-diiodobutane [C4] was studied in greenhouse experiments with soil from a cotton field infested with the reniform nematode [Rotylenchulus reniformis]. The chemicals were obtained from Aldrich, Milwaukee, U.S.A. Emulsifiable concentrates of the compounds were prepared by dilution in acetone containing an emulsogen.
(§1) For each chemical, an aqueous emulsion with 0.2% [w/w] of the compound was prepared and was applied to soil at rates of 2, 4, 6, 8, 10, and 12 mgs a.i./Kg soil. The treated soil was mixed and transferred to 1L capacity 10-cm diameter cylindrical pots. Pots with untreated soil [control] and with treated soil were placed on a greenhouse bench in a randomized complete block design. Each treatment was represented by 14 replications [pots], one half of which were left uncovered, and the other 7 were covered with polyethylene plastic bags [approx. 1 mil thickness] retained with a rubber around the pots. Soil samples for nematological analysis [salad bowl incubation technique] were collected 7-10 days after application of the materials. […] In covered pots, applications of the material were particularly effective resulting in 100% kill with the 10 and 12 mg rates. All dosages of C3 and C4 eliminated the nematode in covered pots. […] In a greenhouse experiment of similar design to the nematicide experiments, the C3 and C4 emulsions were applied at rates of 2-20 mgs a.i./Kg soil to a soil infested with crabgrass [Digitaria sanguinalis], purple nutsedge [Cyperus rotundus], Jimson weed [Datura stramonium] and a variety of other weed species. All pots were covered, and the number of weeds were counted 7, 14 and 30 days after application of the chemicals.

[2] = tested on: German cockroach, Blattella germanica (L.); assay: Fumigant toxicity in sealed glass jar, German cockroach; type: in vivo; conditions: Blattella germanica, inhaled or nasal, 30-60 adult males
Description: (§2) As shown below, Table 1 depicts the toxicity of both monoiodinated and diiodinated hydrocarbons to both the German and the American cockroach after 1 hour of exposure.
(§3) Shown in Table 2 is the toxicity of both monoiodinated and diiodinated hydrocarbons to the German and American cockroach and the Cowpea weevil after 24 hours of exposure.
(§4) In this experiment both the insecticidal and nematicidal properties of iodinated hydrocarbons were compared. In determining the insecticidal properties of the iodinated hydrocarbons, both American (Periplaneta americana) and German (Blattella germanica) cockroaches were used. Groups of cockroaches were confined in 0.95-liter glass jars with a small cotton ball. Exactly 50 μl of a test chemical was applied to the cotton ball and the jar was sealed. Knockdown, defined as the inability to walk in a coordinated manner, and mortality were assessed every 15 minutes for the first hour and hourly thereafter for 8 hours and again after 24 hours.

[3] = tested on: German cockroach, Blattella germanica (L.); assay: as above; conditions: in vivo
[4] = tested on: Cowpea weevil, Callosobruchus maculatus (F.); assay: Fumigant toxicity, Cowpea weevil; type: in vivo; set-up: concentration or dose not given beside the values; conditions: 30 adults
Description: as §3

[5] = tested on: American cockroach, Periplaneta americana (L.); assay: Fumigant toxicity in sealed glass jar, American cockroach; type: in vivo; conditions: Periplaneta americana, inhaled or nasal, 8-36 adult males
Description: as §2, §3, §4

[6] = tested on: crabgrass [Digitaria sanguinalis], purple nutsedge [Cyperus rotundus], Jimson weed [Datura stramonium] and a variety of other weed species; assay: Greenhouse herbicide test in weed-infested potted soil (Experiment 6, FIG. 6); type: in vivo; conditions: up to 20 mg per kg of soil; one week
Description: Illustrated in FIGS. 6 and 7 are the herbicidal properties of the present invention. In FIG. 6, 1,3-diiodopropane and 1,4-diiodobutane were added to a soil sample contained in a pot, wherein the number of weeds were counted at the end of a one week period. The top row of the “x” axis plots the amount in milligrams of iodinated hydrocarbon added per kilogram of soil. The two rows below the top row depict the number of weeds found after a week, which is also plotted on the “y” axis. […] It is inferred that greater dosages would eliminate an even greater number of weeds. FIG. 7 depicts similar results except that the weed controlled was only one variety: crabgrass. […] It is also inferred that dosages larger than 20 mg of iodinated hydrocarbons would further eliminate an even greater number of crabgrass plants.
as §1

[7] = tested on: Heterodera glycines; assay: Greenhouse nematicide test, diiodinated C2-C8 hydrocarbons in infested field soil (Experiments 1 and 2); type: in vivo; conditions: rates ≧5.0 mg
Description: (§5) Additionally, the nematicidal properties of iodinated hydrocarbons were investigated in greenhouse experiments with field soil infested with Meloidogyne arenaria and Heterodera Glycines. Chemicals were added directly to infested solid at rates <100 mg/Kg soil. Treated soil was kept moist (approximately 60 percent field capacity) and uncovered for 7-10 days when samples were collected, and the pots were planted with ‘Brim’ soybean, Glycine max. […] 1,2-diiodoethane (C2), 1,3-diiodopropane (C3), 1,4-diiodobutane (C4), 1,5-diiodopentane (C5), 1,6-diiodohexane (C6), and […] were applied to soil rates of 2.5, 5.0, 7.5, and 10 mg/Kg soil. All rates of C2 and C8 were ineffective in reducing M. arenaria juvenile (J2) populations in preplant samples. This was also true for C2 and J2 populations of H. glycines; however, […] rates ≧5.0 mg suppressed J2 populations of H. glycines. […] H. glycines J2 numbers in final soil samples were generally inversely related to rates for C3-C8. […] Applications of C3-C6 to soil increased shoot weights in a manner directly related to dosages but only in a curvilinear pattern.
(§6) In this experiment, the nematicidal properties of various diiodinated hydrocarbons were compared. The nematicidal properties of diiodinated C2-C8 normal hydrocarbons was assessed in a greenhouse experiment with field soil infested with Meloidogyne arenaria [Ma] and Heterodera glycines [Hg]. 1,2-diiodoethane [C2], 1,3-diiodopropane [C3], 1,4-diiodobutane [C4], 1.5-diiodopentane [C5], 1,6-diiodohexane [C6] and 1,8-diiodooctane [C8] were applied to soil at rates of 2.5, 5.0, 7.5, and 10.0 mgs/kg soil. The potted soil was kept moist in a greenhouse for 10 days when preplant samples were collected for analysis, and the pots were planted with ‘Brim’ soybean [Glycine max]. After 7 weeks of growth, the plants were removed and final soil samples taken. Data was collected on weights of fresh roots and shoots, root galling by Ma, and numbers of nematodes in soil and roots. All rates of C2 and C8 were ineffective in reducing Ma juvenile [J2] populations in the preplant samples. This was also true for C2 and J2 populations of Hg; however, C8 rates ≧5.0 mg suppressed J2 populations of Hg. […] Hg J2 numbers in final soil samples were generally inversely related to rates for C3-C8. This pattern of suppression in J2 numbers was also applicable to Ma in the final soil samples but only for C3-C6. […] Applications of C3-C6 to soil increased shoot weights in a manner directly related to dosages but non-linear in pattern.

[8] = tested on: Meloidogyne arenaria; assay: as above; type: in vivo; conditions: rates ≧5.0 mg
Description: as §5, §6

[9] = tested on: American (Periplaneta americana) and German (Blattella germanica) cockroaches; assay: Knockdown and mortality of cockroaches in sealed jar (both species); type: in vivo; conditions: 50 μl on cotton ball in sealed 0.95-liter jar; for Knockdown of cockroaches: within 1 hour after treatment
Description: as §4, with “sealed.” for “sealed. Knockdown, defined as the inability to walk in a coordinated manner, and mortality were assessed every 15 minutes for the first hour and hourly thereafter for 8 hours and again after 24 hours.”

[10] = tested on: cyst [Heterodera glycines]; assay: Greenhouse nematicide test, iodinated C1-C3 hydrocarbons (Experiment 4); type: in vivo
Description: (§7) In this experiment, the nematicidal properties of low molecular weight iodinated hydrocarbons were investigated. The nematicidal properties of iodinated C1-C3 hydrocarbons were evaluated in greenhouse experiments with field soil infested with root-knot [Meloidogyne arenaria] and cyst [Heterodera glycines] nematodes. lodomethane, di-iodomethane, iodoethane, di-iodoethane, and 1-iodopropane were added to soil at rates of 0.1, 0.2 and 0.4 ml/kg soil.
(§8) The treated soil was kept moist for 10 days when soil samples were taken for nematode analysis and ‘Brim’ soybean [Glycine max] planted. Soybeans were allowed to grow for 8 weeks and then were removed from the soil to determine plant growth, root-knot indices and the number of galls generated by M arenaria. […] All compounds except 1-iodopropane increased fresh shoot weight when applied at ≧0.1 ml/kg soil.

[11] = tested on: 'Brim' soybean; assay: Soybean growth and root condition in treated soil (Experiment 5); type: in vivo; conditions: rates 100-400 mg/kg
Description: (§9) In this experiment, the nematotoxic properties of ethylene diiodide were compared to that of methyl iodide. The nematicidal efficacies of iodomethane [IM] and ethylene diiodide [EDI] were compared in a greenhouse experiment using field soil infested with Meloidogyne arenaria, Pratylenchus brachyurus, and Paratrichodorus christiei.
(§10) Each compound was added to soil at rates of 100, 200, 300 and 400 mg s/kg of soil. The soil was potted and kept moist for two weeks when it was planted with ‘Brim’ soybean after taking samples for nematological analyses. After eight weeks of growth, the plants were removed from the pots and soil samples taken. Data was collected on weights of fresh roots and shoots, general appearance of roots [root condition index] and root gall formation by M. arenaria. All EDI rates eliminated M. arenaria juveniles [J2] and populations of the other nematodes in the preplant samples; IM reduced J2 numbers by 50-70%, eliminated P. christiei with the 400 mg rate, but had no effect on P. brachyurus. […] The general appearance of roots was improved by EDI at rates ≦300 mg, but MI had no effect on the variable. […] M. arenaria J2 populations in roots were reduced by 60-70% by MI treatments, but the compound had no effect on root populations of P. brachyurus. MI had no effect on J2 populations in the final soil samples, although it suppressed P. christiei, by 50-70%.

[12] = tested on: Paratrichodorus christiei; assay: Greenhouse nematicide test, iodomethane vs ethylene diiodide (Experiment 5); type: in vivo
Description: as §9, §10

[13] = tested on: Pratylenchus brachyurus; assay: as above; type: in vivo
Description: as §9, §10

[14] = tested on: Meloidogyne arenaria; assay: as above; type: in vivo
Description: as §9, §10

[15] = tested on: root-knot [Meloidogyne arenaria]; assay: Greenhouse nematicide test, iodinated C1-C3 hydrocarbons (Experiment 4); type: in vivo
Description: as §7, §8

[16] = 1 h exposure, read-out: % Mortality after 1 h exposure, German cockroach
[17] = 24 h exposure, read-out: % Mortality after 24 h exposure, German cockroach
[18] = 1 h exposure, read-out: % Mortality after 1 h exposure, American cockroach
[19] = 24 h exposure, read-out: % Mortality after 24 h exposure, American cockroach

`ICCCCI` [1,4-diiodobutane] was tested, and the “Nematode in soil, covered pots” value ([1]; covered pots, all dosages (2-12 mgs a.i./Kg soil)) was “eliminated”, the “Dose that eliminates the nematodes” value ([1]; uncovered and covered state) was “about 10 mg per kg of soil” and the “Mortality of the nematode” value ([1]; uncovered pots, 3 highest rates) was 100%. The mortality at 50 µL/jar [2, 16] was 0%, the mortality at 50 µL/jar [2, 17] was 70% and the “Repellency to German cockroaches” value [3] was “repellent”. For the same molecule, the “% Mortality after 24 h exposure, Cowpea weevil” value (from here on “% Mortality after 24 h exposure”) [4] was 47%, the mortality at 50 µL/jar [5, 18] was 0% and the mortality at 50 µL/jar [5, 19] was 33%. For the same molecule, the “Number of weeds found in the pots as the dosage is increased (FIG. 6)” value [6] was “steady decline”, the “H. glycines J2 populations in preplant samples” value [7] was “virtually eliminated” and the “M. arenaria J2 populations in preplant samples” value [8] was “virtually eliminated”.
For `ICI` [diiodomethane], the mortality at 50 µL/jar [2, 16] was 40%, the mortality at 50 µL/jar [2, 17] was 100% and the “Time to 100 percent mortality of cockroaches” value [9] was no more than 4 h. The Knockdown of cockroaches [9] was “≈ 40%”, the “Repellency to German cockroaches” value [3] was “repellent” and the “% Mortality after 24 h exposure” value [4] was 100%. For the same molecule, the mortality at 50 µL/jar [5, 18] was 39%, the mortality at 50 µL/jar [5, 19] was 100% and the “H. glycines J2 populations in soil” value ([10]; 10 days after application, all dosages (0.1, 0.2, 0.4 ml/kg soil)) was “eliminated”.
`CI` [iodomethane, reference compound] was tested, and the “Control of the nematode in soil” value ([1]; listed as C1) was “failed to control”, the “Control of the nematode in soil” value ([1]; listed as methyl iodide) was “ineffective” and the mortality at 50 µL/jar [2, 16] was 100%. For the same molecule, the mortality at 50 µL/jar [2, 17] was 100%, the Knockdown of cockroaches [9] was 100% and the “General appearance of roots [root condition index]” value [11] was “no effect”. The “% Mortality after 24 h exposure” value [4] was 100%, the mortality at 50 µL/jar [5, 18] was 100% and the mortality at 50 µL/jar [5, 19] was 100%. The “P. christiei populations in preplant samples” value ([12]; 400 mg rate) was “eliminated”, the “Suppression of P. christiei in final soil samples” value ([12]; final soil samples) was 50-70% and the “Root populations of P. brachyurus” value ([13]; after eight weeks of growth) was “no effect”. The “P. brachyurus populations in preplant samples” value ([13]; rates 100-400 mg/kg of soil) was “no effect”, the “Reduction of M. arenaria J2 populations in roots” value ([14]; after eight weeks of growth) was 60-70% and the “J2 populations in the final soil samples” value ([14]; final soil samples) was “no effect”. The “Reduction of M. arenaria J2 numbers in preplant samples” value ([14]; rates 100-400 mg/kg of soil) was 50-70%, the “Galls in roots of plants from treated soil (M. arenaria)” value ([14]; soybean after eight weeks) was “significant numbers” and the “H. glycines J2 populations in soil” value ([10]; 0.4 ml rate) was “reduced”. The “H. glycines J2 populations in soil” value ([10]; rates lower than 0.4 ml) was “ineffective”, the “Root-knot nematode juveniles in soil” value ([15]; 0.4 ml rate) was “eliminated” and the “Gall formation by M. arenaria” value ([15]; applied at ≧0.2 ml/kg soil) was “Significant suppression”. The “Root-knot nematode juveniles in soil” value ([15]; rates lower than 0.4 ml) was “ineffective”.

Source: US6465527B1, “Iodinated hydrocarbon pesticide” (priority 1999, dated 2002)
